Consider 1 compound from patent US10786459B2, “Twin-screw dry granulation for producing solid formulations” (R. P. Scherer Technologies LLC, priority 2016, dated 2020).

Holding throughout (type): physicochemical
Data set [1] in a line: Thermogravimetric analysis (TGA) of OND. As for the experimental part: Thermogravimetric analysis (TGA) was used to determine weight loss of OND due to dehydration. A weighed sample of OND was heated from 25° C. to 300° C. at a rate of 20° C./min in a platinum pan under an inert nitrogen atmosphere purge flowing at a rate of 20 ml per minute. Heating caused loss of 2 moles of loosely bound water from each mole of OND dihydrate.

A short description of data set [2]: Dynamic vapor sorption (DVS) of OND. The conditions noted are these: 25 °C. The method, then: Dynamic vapor sorption (DVS) was then used to measure the weight loss of OND during an isotherm dehydration study. The DVS apparatus (Surface Measurement Systems, London, UK) was a commercially available water sorption apparatus, which allowed an OND sample to be weighed under defined temperature and humidity conditions. About 14 mg of OND was weighed onto an aluminum pan. The DVS apparatus was programmed to run from 0% to 90% relative humidity (RH) at increments of 10% RH and then again going from 90% back to 0% RH at decrements of 10% RH. The study was conducted at 25° C. and in triplicate. The accuracy of the DVS apparatus was ±1.0% for the RH and ±0.2° C. for the temperature.

Data set [3] in a line: Hot-stage microscopy (HSM) of OND. The settings on record: heated 35 to 150 °C at 2 °C/min in silicone oil. The method, then:
Hot-stage microscopy (HSM) was used to capture images at different stages of OND transformation. A glass slide with a sample of a small amount of OND dispersed in silicone oil was inserted into a hot-stage system (FTIR 600, Linkam Scientific Instruments, Surrey, UK). The OND sample was examined while being heated from 35° C. to 150° C. at a constant rate of 2° C./min. A camera-mounted optical microscope (Cary 620 IR, Agilent Technologies, Santa Clara, Calif., USA) equipped with a hot-stage was used to capture images at different stages of the OND transformation.

The nature of data set [4]: DSC/FTIR compatibility and crystallinity of OND (Example 3). The conditions noted are these: 1:1 ratio. An excerpt:
Differential scanning calorimetry (Diamond DSC, Perkin Elmer Life and Analytical Sciences, 710 Bridgeport Ave., Conn., USA) equipped with Pyris manager software (Shelton, Conn., USA) and Fourier transform infrared spectroscopy (FTIR, Agilent Technologies Cary 660, Santa Clara, Calif.) were used to study the compatibility of OND with various polymeric carriers in 1:1 ratio in a dry granulation process carried out in a twin-screw extruder to provide granules used to produce extended release tablets. Samples were prepared by hermetically sealing approximately 3-5 mg of pure OND or powder mixture in aluminum pans, which were then heated over a temperature range of 40-250° C. at a linear heating rate of 10° C./min under an inert nitrogen atmosphere. An FTIR bench equipped with a […]® attenuated total reflection (Pike Technologies, Madison, Wis.) was used to generate mid-infrared spectra in the range of 4000-650 cm-1, which was fitted with a single bounce diamond coated ZnSe internal reflection element. […] Thus, the crystalline structure of OND was preserved in the granules.

Structures can show the parent of a compound that is named as a salt.

Consider `Cc1nccn1CC1CCc2c(c3ccccc3n2C)C1=O` (stereo not drawn) [OND, Ondansetron HCl dihydrate], for which, in data set [1] (TGA thermogram), the “temperature range of dehydration event (TGA)” value was 60-105 °C. Also, the “weight lost (TGA)” value in data set [1] (heated from 60-105 °C, 20 °C/min, nitrogen) is given as “about 10%”. In addition, the “weight gain (DVS)” value in data set [2] (RH increased beyond 20% up to 90%) amounted to 9.2%; in data set [2] (RH increased from 0% to 10%), 2.67%; in data set [2] (RH increased to 20%), 8.9%. Also, in data set [2] (at 0% RH), the “weight loss (DVS)” value was found to be 9.5%. Further, the “weight decrease (DVS)” value in data set [2] (desorption, at 10% RH) is reported as “up to 4.44%”. Moreover, in data set [3], the “temperature at which crystals started dehydration (HSM)” value was 90 °C. For the same compound, the “compatibility of OND with polymeric carriers” value in data set [4] is “compatible”.
